Where a name gives a salt, the structure may show the parent alone.
What was measured:
[1] = test system: dsDNA (300 bp-500 bp long, containing 4 known caC sites per strand); assay: caC detection of dsDNA by Illumina sequencing, one-step overnight incubation; settings: one-step protocol, 100 mM borane, pH 4.3, 40° C., 16 h; expected beta=1; FIG. 4
Experimental: An aliquot of 2 M borane stock solution in DMF was added to a buffered solution containing calculated amount of dsDNA (300 bp-500 bp long, containing 4 known caC sites per strand), resulting in the final borane concentration of 100 mM and pH of 4.3 (0.5 M NaOAc). The reaction mixture (50 μL) was shaken at 40° C. for 16 h. Then, the samples were purified by 1.8×SPRI (pH adjusted with 1 M Tris buffer pH=9.0). The purified DNA was PCR-amplified using the NEB-Next Enzymatic Methyl-Seq kit's NEB-Next Q5U Master Mix along with IDT-ILMN NextEra UDI Index primers. Finally, 0.9×SPRI purification was performed. The DNA libraries were normalized to 2 nM and 20 pM sequenced on an Illumina NextSeq instrument. The sequencing data was analysed to extract the beta value, which reflects the percentage conversion of caC to T.
The boranes tested included 5-methylthiazole borane VM117, 3-aminopyridine borane (3 AP), 4-methylpyridine-borane (4MeP), 5-(methoxymethyl)-2,4-dimethyl-1,3-thiazole borane (VM293), and 4-hydroxymethylpyridine borane (4HMP). […] The percentage of caC sites were detected by Illumina sequencing.

[2] = test system: human DNA NA12878 treated with human TET2 dioxygenase; assay: caC detection by Illumina sequencing, two-step incubation; settings: borane 40 mM or 100 mM, pH 4.3, 40° C. 2.5 hours, quench alpha-ketoglutarate, then 40° C. 18 hours; FIG. 5
Experimental: A sample of human DNA NA12878 was treated with human TET2 dioxygenase to oxidise mC to caC. The sample was purified by a 1.8×SPRI and resuspended in RSB buffer. 2 M stocks of the amine-boranes were prepared in DMF, then added to the DNA to a final concentration of 40 mM or 100 mM, along with pH 4.3 sodium acetate buffer to a final concentration of 0.5 M. For the one-step protocol, the samples were incubated at 40° C. for 18 hours and 750 rpm shaking. For the two-step protocol, the samples were incubated at 40° C. for 2.5 hours and 750 rpm shaking, then quenched with a 1 M solution of alpha-ketoglutarate at pH 4.3 (to a final concentration of 400 mM) and kept at 40° C. for 18 hours and 750 rpm shaking. After the incubation, all samples underwent a 1.8×SPRI purification after adding 1 M pH 9 TRIS to basify the pH. Libraries were then amplified via PCR using the NEB-Next Enzymatic Methyl-Seq kit's NEB-Next Q5U Master Mix along with NEBNext Multiplex Oligos for Illumina Index primers. A final 0.9×SPRI was performed, before libraries were normalized to 20 pM sequenced on an Illumina NovaSeq (2×151 cycles). The sequencing data was analysed to extract the beta value, which reflects the percentage conversion of 5mC or 5hmC to T.
The percentage caC sites were detected by Illumina sequencing.

[3] = test system: 7mer oligodeoxyribonucleotide AT[5caC]GCTA; assay: Reaction kinetics of caC reduction on 7mer, boranes with cationic moieties; settings: 50 μM 7mer, 10 mM borane, NaOAc pH 4.3, 25° C.; FIG. 7
Experimental: (§1) To 45 μL of an aqueous solution of 0.111 mM 5caCpG dimer (0.1 mM final concentration) or 55.6 μM 7mer oligodeoxyribonucleotide (50 μM final concentration, sequence: AT[5caC]GCTA) or 22.2 μM 20mer oligodeoxyribonucleotide (20 μM final concentration, sequence: TTTCAGCTC[5caC]GGTCACGCTC) in 556 mM NaOAc buffer (pH 4.3, 500 mM final concentration) were added 5 μL of a stock solution of the respective borane (100 mM in DMF, 10 mM final concentration) and the reaction was incubated at 25° C. after short vortexing. Aliquots of 8 μL were taken at set time points and were quenched immediately with 4 μL alpha-ketoglutarate monosodium salt (1.0 M in H2O) and analysed by RP-UHPLC for consumption of the caC moiety in the starting material and formation of the product DHU moiety.

[4] = test system: 20mer oligodeoxyribonucleotide TTTCAGCTC[5caC]GGTCACGCTC; assay: Reaction kinetics of caC reduction on 20mer, boranes with cationic moieties; settings: 20 μM 20mer, 10 mM borane, NaOAc pH 4.3, 25° C.; FIG. 7
Experimental: as §1

SMILES	beta value (percentage of caC sites detected by Illumina sequencing; conversion of caC to T) [1]	beta values with two-step protocol compared with one-step protocol [2]	reaction kinetics of consumption of caC on the 7mer [3]	reaction kinetics of consumption of caC on the 20mer [4]
[BH3-][n+]1ccc(C)cc1	~1	consistent with the value obtained with the one-step protocol	–	–
[BH3-][n+]1ccc(CO)cc1 [4HMP, 4-Hydroxymethylpyridine borane]	~1	–	–	–
[BH3-][n+]1cccc(N)c1 [3 AP, 3-aminopyridine borane]	~1	–	–	–
B[n+]1c(C)sc(COC)c1C [VM293, 5-(methoxymethyl)-2,4-dimethyl-1,3-thiazole borane]	~1	–	–	–
C[N+](C)(C)CC(=O)NCc1ccncc1 [4AMP-Bet, 4-(Betainamidomethyl)pyridine borane (OBt/PF6 salt)]	–	–	efficient reaction kinetics of consumption of caC	efficient reaction kinetics of consumption of caC
B[n+]1csc(C)c1 [VM117, 5-methylthiazole borane]	~1	consistent with the value obtained with the one-step protocol	–	–
